Data as given in patent US12568969B2, “Pyridine compounds for controlling invertebrate pests” (FMC Corporation, priority 2020, dated 2026).

Key:
[1] = tested on: potato leafhopper (Empoasca fabae (Harris)); assay: Test C: control of potato leafhopper on Soleil bean plant, spray; format: in vivo; conditions: for Control Efficacy PLH: potato leafhopper
Experimental: Test compounds were formulated using a solution containing 10% acetone, […] and 300 ppm Activator 909 non-ionic surfactant (Loveland Products, Loveland, Colorado, USA). The formulated compounds were applied in 1 mL of liquid through an atomizer nozzle positioned 1.27 cm (0.5 inches) above the top of each test unit. Test compounds were sprayed at the rates indicated, and each test was replicated three times.
For evaluating control of potato leafhopper (Empoasca fabae (Harris)) through contact and/or systemic means, the test unit consisted of a small open container with a 5-6-day-old Soleil bean plant (primary leaves emerged) inside. White sand was added to the top of the soil, and one of the primary leaves was excised prior to application of the test compound.
[…] After spraying of the formulated test compound, the test units were allowed to dry for 1 hour before they were post-infested with 5 potato leafhoppers (18-to-21-day-old adults). A black, screened cap was placed on the top of the test unit, and the test units were held for 6 days in a growth chamber at 20° C. and 70% relative humidity. Each test unit was then visually assessed for insect mortality.

[2] = tested on: cotton melon aphid (Aphis gossypii (Glover)); assay: whole plant or invertebrate; format: in vivo; conditions: for Control Efficacy CMA: cotton melon aphid
How it was run: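 Compounds were formulated in a solution of 10% acetone, […] and 300 ppm Activator 909 non-ionic surfactant and sprayed as 1 mL through an atomizer nozzle 1.27 cm (0.5 inches) above each test unit, with three replicates. Units were pre-infested with 30-40 aphids on leaf pieces via the cut-leaf method, soil covered with sand, then kept 6 days at 19° C. and 70% relative humidity before visual mortality scoring.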

[3] = Vapor pressure estimated by GC/MS retention time correlation; format: physicochemical
Experimental: The procedures to obtain the vapor pressure values for both compounds are as follows: A solution of the test compound was prepared in acetonitrile at a concentration of 50 μg/mL and was then analyzed by gas chromatography/mass spectrometry (GC/MS). A linear correlation of retention times vs. known vapor pressure values of standard compounds is used to obtain an estimate of the vapor pressure of the test compounds by using interpolation. Detection and retention time of the subject compounds are confirmed by interpretation of the mass spectrum.

[4] = tested on: green peach aphid (Myzus persicae (Sulzer)); assay: Test D: control of green peach aphid on radish plant, spray; format: in vivo; conditions: for Control Efficacy GPA: green peach aphid
How it was run: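 Radish plants (12-15 days old) pre-infested with 30-40 aphids, sprayed with compound in 10% acetone/water with 300 ppm non-ionic surfactant at 250 and/or 50 ppm, three replicates. Held 6 days at 19-21 °C, 50-70% relative humidity, then mortality scored visually.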

[5] = tested on: corn planthopper (Peregrinus maidis (Ashmead)); assay: whole plant or invertebrate; format: in vivo; conditions: for Control Efficacy CPH: corn planthopper
How it was run: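 Corn plants 3-4 days old were sprayed at 250, 50 and/or 10 ppm in 10% acetone with 300 ppm non-ionic surfactant, three replicates, contact and/or systemic exposure. After 1 h drying, ~15-20 nymphs (18-to-21-day-old) were added; mortality assessed visually after 6 days at 22-24° C, 50-70% RH.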

For `Fc1cncc(-n2nccn2)c1C(F)c1ccc(OC(F)(F)F)cc1` (stereo not drawn) [Compound 8], the mortality at 250 ppm ([1]; Empoasca fabae, 144 h, sprayed at 250 ppm, 6 days) was ≥ 80%, the “control efficacy compared with compound A” value ([1]; PLH, at 250 ppm) was “significantly higher control efficacy than compound A” and the “Control Efficacy PLH” value ([1]; sprayed at 50 ppm) was 0. For the same compound, the “Control Efficacy PLH” value ([1]; sprayed at 250 ppm) was 93, the mortality at 50 ppm ([2]; Aphis gossypii, 144 h, sprayed at 50 ppm, 6 days) was ≥ 80% and the mortality at 250 ppm ([2]; Aphis gossypii, 144 h, sprayed at 250 ppm, 6 days) was ≥ 80%. For the same compound, the “control efficacy compared with compound A” value ([2]; CMA, down to 2 ppm) was “significantly higher control efficacy than compound A”, the Control Efficacy CMA ([2]; sprayed at 2 ppm) was 79% and the Control Efficacy CMA ([2]; sprayed at 10 ppm) was 88%. For the same compound, the Control Efficacy CMA ([2]; sprayed at 50 ppm) was 96%, the Control Efficacy CMA ([2]; sprayed at 250 ppm) was 80% and the “Vapor Pressure” value [3] was 6.04E−06. The “vapor pressure relative to compound A” value ([3]; compared with compound A) was ~1000 times lower, the “control efficacy compared with compound A” value ([4]; GPA, down to 2 ppm) was “significantly higher control efficacy than compound A” and the mortality at 50 ppm ([4]; Myzus persicae, 144 h, sprayed at 50 ppm, 6 days) was ≥ 80%. The mortality at 250 ppm ([4]; Myzus persicae, 144 h, sprayed at 250 ppm, 6 days) was ≥ 80%, the Control Efficacy GPA ([4]; sprayed at 2 ppm) was 100% and the Control Efficacy GPA ([4]; sprayed at 10 ppm) was 94%. The Control Efficacy GPA ([4]; sprayed at 50 ppm) was 100%, the Control Efficacy GPA ([4]; sprayed at 250 ppm) was 100% and the “control efficacy compared with compound A” value ([5]; CPH, down to 2 ppm) was “significantly higher control efficacy than compound A”. For the same compound, the mortality at 50 ppm ([5]; Peregrinus maidis, 144 h, sprayed at 50 ppm, 6 days) was ≥ 80%, the mortality at 250 ppm ([5]; Peregrinus maidis, 144 h, sprayed at 250 ppm, 6 days) was ≥ 80% and the Control Efficacy CPH ([5]; sprayed at 2 ppm) was 89%. For the same compound, the Control Efficacy CPH ([5]; sprayed at 10 ppm) was 95%, the Control Efficacy CPH ([5]; sprayed at 50 ppm) was 100% and the Control Efficacy CPH ([5]; sprayed at 250 ppm) was 100%.
